Experimental data reported in ChEMBL document CHEMBL1201862, “PubChem BioAssay data set” (2004).
Active and inactive are the calls of the source.

Tests used:
[1] = biological target: Intestinal-type alkaline phosphatase (Mus musculus, UniProt P24822); assay: PubChem AID 488874; assay type: functional
[2] = biological target: T1, Intestinal-type alkaline phosphatase (Homo sapiens, UniProt P09923); assay: human IAP activators, dose response, biochemical, luminescent, uHTS hits, set 2 (AID 488817); assay type: functional;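 note: potency of activators that raise enzyme activity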
T1 sequence (P09923 whole entry): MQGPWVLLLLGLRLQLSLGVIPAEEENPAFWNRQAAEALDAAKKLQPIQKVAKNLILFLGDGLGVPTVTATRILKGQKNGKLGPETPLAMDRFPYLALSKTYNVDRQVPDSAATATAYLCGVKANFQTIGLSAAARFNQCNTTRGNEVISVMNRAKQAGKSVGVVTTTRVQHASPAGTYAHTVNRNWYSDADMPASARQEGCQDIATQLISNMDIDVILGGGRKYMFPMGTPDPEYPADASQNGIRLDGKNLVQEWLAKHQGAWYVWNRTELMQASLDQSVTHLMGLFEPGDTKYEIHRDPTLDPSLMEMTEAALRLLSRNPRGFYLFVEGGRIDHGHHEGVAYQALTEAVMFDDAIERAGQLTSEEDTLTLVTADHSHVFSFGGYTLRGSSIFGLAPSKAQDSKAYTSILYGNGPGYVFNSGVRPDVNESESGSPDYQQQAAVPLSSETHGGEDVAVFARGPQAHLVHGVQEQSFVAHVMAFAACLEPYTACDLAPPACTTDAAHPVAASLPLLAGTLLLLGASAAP

[3] = cytotoxicity in MIN6 insulinoma cells, dose response, cytotoxicity control, cell-based, mouse insulinoma (AID 2122); assay type: functional;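 note: confirmatory high-throughput counterscreen run to flag cytotoxic compounds; mouse MIN-6 beta cells carrying an insulin promoter eGFP reporter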
[4] = biological target: T1, Intestinal-type alkaline phosphatase; assay: human intestinal alkaline phosphatase activators, dose response, biochemical, luminescence, uHTS hits (AID 463120); assay type: functional
[5] = Luminescence Cell-Based Dose Response HTS to Identify Inhibitors of 5'UTR Stem-Loop Driven Prion Protein mRNA Translation in H4 Neuroglioblastoma Cells. [Related pubchem assays: 1827 (Project Summary), 1813 (Primary HTS)]; assay type: functional
[6] = control 3'UTR Renilla luciferase suppression, dose response, counter-screen for Shn3 inhibitor project, cell-based, Clone20-Shn3RL, cherry-picked (AID 624133); assay type: functional
[7] = tested on: HEK293; assay: cytotoxicity in HEK293T NF-kB-Luc cells, SAR follow-up, cytotoxicity control for NF-kB activator project, cell-based, resazurin fluorescence (AID 493251); assay type: functional; conditions: Homo sapiens
[8] = non-specific cell cytotoxicity, dose response, cytotoxicity control for PAX8 inhibitor project, plate reader, dry powder samples (AID 743021); assay type: functional, cell-based
[9] = IOSE-T80 ovarian epithelial cell cytotoxicity, dose response, cytotoxicity control for PAX8 inhibitor project, plate reader, dry powder samples (AID 743045); assay type: functional, cell-based
[10] = Shn3 3'UTR reporter inhibitors, dose response, cell-based, Clone20 osteoblasts, firefly luciferase, cherry-picked (AID 624132); assay type: functional;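 note: firefly luciferase luminescence from reporter carrying the Shn3 3'UTR in osteoblasts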
[11] = A2780 ovarian cancer cell cytotoxicity, dose response, cytotoxicity control, plate reader, dry powder samples (AID 743046); assay type: functional, cell-based
[12] = biological target: ATP-dependent molecular chaperone HSP82 (Candida albicans (strain WO-1) (Yeast), UniProt C4YTQ8); assay: loss of DOC-induced GRE-beta-galactosidase reporter signal, dose response, Hsp90 inhibitor project, S. cerevisiae, luminescence (AID 2400); assay type: functional, cell-based;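 note: beta-galactosidase luminescence from glucocorticoid response element reporter as proxy for Hsp90 function; inhibitor potency where signal loss means Hsp90 inhibition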
Chain of ATP-dependent molecular chaperone HSP82 (C4YTQ8 whole entry): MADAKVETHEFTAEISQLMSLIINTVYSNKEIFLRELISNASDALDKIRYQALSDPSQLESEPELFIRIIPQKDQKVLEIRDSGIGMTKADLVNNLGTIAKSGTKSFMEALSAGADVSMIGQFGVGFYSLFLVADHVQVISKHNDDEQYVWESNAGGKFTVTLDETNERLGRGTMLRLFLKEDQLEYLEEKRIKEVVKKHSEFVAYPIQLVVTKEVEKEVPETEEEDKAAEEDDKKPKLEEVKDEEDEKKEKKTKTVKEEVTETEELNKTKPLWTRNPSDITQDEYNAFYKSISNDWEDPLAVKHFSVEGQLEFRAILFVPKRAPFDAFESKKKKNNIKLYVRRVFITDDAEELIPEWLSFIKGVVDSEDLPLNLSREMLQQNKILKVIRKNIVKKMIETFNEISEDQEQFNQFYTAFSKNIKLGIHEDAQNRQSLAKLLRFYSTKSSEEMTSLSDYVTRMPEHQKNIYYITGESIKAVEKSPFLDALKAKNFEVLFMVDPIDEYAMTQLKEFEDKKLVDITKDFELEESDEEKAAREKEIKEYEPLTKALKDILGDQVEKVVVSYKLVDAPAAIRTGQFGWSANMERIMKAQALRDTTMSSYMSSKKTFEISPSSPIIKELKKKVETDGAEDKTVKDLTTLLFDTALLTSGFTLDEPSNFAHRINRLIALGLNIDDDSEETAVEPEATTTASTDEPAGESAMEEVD

[13] = biological target: Heat shock protein HSP 90-alpha (Homo sapiens, UniProt P07900); assay type: functional, organism-based
[14] = inhibitors of intracellular T. cruzi replication, confirmation, NIH3T3 host cells, beta-gal luminescence (AID 2044); assay type: functional, cell-based;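 note: intracellular parasites grown in NIH/3T3 mouse fibroblasts as host cells; luminescent beta-galactosidase reporter signal from transgenic T. cruzi replicating inside host cells; inhibitors lower the luminescence signal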
[15] = cytotoxicity dependent on PAX8, dose response, cell-based, plate reader, dry powder (AID 743049); assay type: functional
[16] = tested on: Jurkat; assay: SAR Analysis of small molecule inhibitors of T-cell specific antigen receptor-induced NF-kB activation in a Jurkat cell line using a luminescence assay - Set 2. [Related pubchem assays (depositor defined):AID435003, AID435012, AID465]; assay type: functional, cell-based; conditions: Homo sapiens
[17] = biological target: T2, Serine/threonine-protein phosphatase (Candida dubliniensis (strain CD36 / CBS 7987 / NCPF 3949 / NRRLY-17841) (Yeast), UniProt B9W6M3); assay: calcineurin pathway inhibitors in yeast reporter, dose response, S. cerevisiae, CDRE-lacZ, luminescence, secondary (AID 2388); assay type: functional, cell-based;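 note: yeast reporter cells carrying a calcineurin-responsive lacZ construct stimulated with calcium chloride; luminescent beta-galactosidase reporter signal in whole cells rather than isolated phosphatase activity; potency for inhibition where a drop in reporter signal means calcineurin blockade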
T2 sequence (B9W6M3 whole entry): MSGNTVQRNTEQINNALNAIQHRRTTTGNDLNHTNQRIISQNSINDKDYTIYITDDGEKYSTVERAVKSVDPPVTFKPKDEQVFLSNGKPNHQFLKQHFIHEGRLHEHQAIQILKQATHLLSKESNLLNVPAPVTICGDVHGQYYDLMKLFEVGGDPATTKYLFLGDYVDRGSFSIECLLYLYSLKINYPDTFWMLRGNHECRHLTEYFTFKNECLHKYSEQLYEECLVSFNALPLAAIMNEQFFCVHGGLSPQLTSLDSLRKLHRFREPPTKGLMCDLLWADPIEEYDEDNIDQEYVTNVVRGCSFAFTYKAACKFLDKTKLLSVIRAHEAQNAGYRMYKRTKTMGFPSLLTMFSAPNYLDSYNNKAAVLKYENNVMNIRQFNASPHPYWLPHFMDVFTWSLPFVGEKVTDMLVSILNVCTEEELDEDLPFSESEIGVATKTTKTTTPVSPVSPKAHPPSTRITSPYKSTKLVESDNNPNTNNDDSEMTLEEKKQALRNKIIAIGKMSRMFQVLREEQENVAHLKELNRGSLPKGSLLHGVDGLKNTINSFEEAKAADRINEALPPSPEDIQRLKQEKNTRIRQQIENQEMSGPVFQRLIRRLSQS

[18] = cytotoxicity in COV362 ovarian cancer cells, dose response, cytotoxicity control for PAX8 inhibitor project, cell-based, plate reader, dry powder, SA12 (AID 743144); assay type: functional
[19] = cytotoxicity in OV-90 ovarian cancer cells, dose response, PAX8 inhibitor project, cell-based, plate reader, dry powder, SA8 (AID 743149); assay type: functional
[20] = cells; assay type: functional, cell-based
[21] = PAX5 activity inhibitors, dose response, selectivity assay for PAX8 inhibitor project, cell-based, plate reader, dry powder samples (AID 743047); assay type: functional;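 note: HEK293 cells carrying a Pax5 driven CD19 promoter luciferase reporter; potency of inhibitors that lower reporter luminescence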
[22] = biological target: T3, Sentrin-specific protease 8 (Homo sapiens, UniProt Q96LD8); assay type: functional
T3 sequence (Q96LD8 whole entry): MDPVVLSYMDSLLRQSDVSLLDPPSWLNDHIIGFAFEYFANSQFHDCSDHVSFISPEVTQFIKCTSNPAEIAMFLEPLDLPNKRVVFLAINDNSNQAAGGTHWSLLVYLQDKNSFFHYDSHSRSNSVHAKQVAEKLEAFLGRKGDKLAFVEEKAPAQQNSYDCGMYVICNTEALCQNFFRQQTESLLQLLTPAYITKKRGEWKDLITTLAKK

[23] = biological target: T4, Caspase-6 (Homo sapiens, UniProt P55212); assay: human caspase-6 inhibitors, dose response, biochemical, VEID-R110 fluorescence, cherry-pick (AID 720632)
T4 sequence (P55212 whole entry): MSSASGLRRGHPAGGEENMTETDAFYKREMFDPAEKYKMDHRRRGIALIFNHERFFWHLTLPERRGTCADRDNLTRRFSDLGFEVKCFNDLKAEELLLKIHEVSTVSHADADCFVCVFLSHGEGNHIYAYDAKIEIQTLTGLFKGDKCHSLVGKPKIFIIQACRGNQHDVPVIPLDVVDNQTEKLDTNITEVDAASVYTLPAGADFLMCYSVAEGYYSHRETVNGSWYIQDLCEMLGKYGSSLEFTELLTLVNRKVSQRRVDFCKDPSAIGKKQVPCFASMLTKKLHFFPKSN

[24] = biological target: T3, Sentrin-specific protease 8; assay type: functional; remark: listed apart in the source
[25] = HepG2 cell cytotoxicity, dose response, cytotoxicity control for non-replicating M. tuberculosis project (AID 489018); assay type: functional; conditions: Mycobacterium tuberculosis
[26] = CEM21 lymphoblast cell cytotoxicity, dose response, cytotoxicity control for viral fusion inhibitor project, CellTiter-Glo luminescence, cherry-picked (AID 652042); assay type: functional, cell-based;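 note: potency for signal decrease meaning cytotoxicity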
[27] = off-target signal loss in HeLa-CEM21 co-culture – HeLa F-luc CTL cells, cherry-picked, counter-screen for HIV-1 Env fusion inhibitor project, dose response (AID 652040); assay type: functional, cell-based;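 note: potency for signal decrease marking cytotoxic or nonspecific inhibition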
[28] = ZM109 Env clade C HIV-1 fusion inhibitors, dose response, HeLa effector, CEM target cells, luciferase, cherry-pick (AID 652058); assay type: functional, cell-based
[29] = inhibitors of HIV Env-driven cell fusion, dose response, cherry-pick (AID 652057); assay type: functional, cell-based
[30] = inhibitors of clade B AD8 Env fusion, dose response, cell-based, cherry-pick (AID 652062); assay type: functional;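 note: luciferase signal from cell-cell fusion driven by HIV-1 clade B AD8 Env; potency is for inhibitors of fusion seen as a drop in luminescence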
[31] = microbe, parasite or virus in culture; assay type: functional; conditions: Mycobacterium tuberculosis

Chain of Intestinal-type alkaline phosphatase (Mus musculus, UniProt P24822) (P24822 whole entry): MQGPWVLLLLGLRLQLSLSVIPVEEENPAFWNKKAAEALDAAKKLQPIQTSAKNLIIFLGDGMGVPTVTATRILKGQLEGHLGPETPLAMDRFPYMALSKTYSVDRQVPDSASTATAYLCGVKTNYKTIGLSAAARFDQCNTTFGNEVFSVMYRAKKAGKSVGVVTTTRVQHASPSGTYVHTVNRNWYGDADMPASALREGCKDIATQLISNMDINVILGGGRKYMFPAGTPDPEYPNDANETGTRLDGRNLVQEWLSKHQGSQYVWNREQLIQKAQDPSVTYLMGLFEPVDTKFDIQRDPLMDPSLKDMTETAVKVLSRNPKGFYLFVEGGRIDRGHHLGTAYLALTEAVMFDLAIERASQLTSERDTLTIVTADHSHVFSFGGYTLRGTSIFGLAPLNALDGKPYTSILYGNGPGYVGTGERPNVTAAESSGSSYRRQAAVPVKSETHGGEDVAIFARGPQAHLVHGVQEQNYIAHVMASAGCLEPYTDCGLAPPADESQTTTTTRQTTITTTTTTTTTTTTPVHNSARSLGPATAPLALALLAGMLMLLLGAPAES

Compound: O=C(/C=C/c1cccs1)NC(=S)NNC(=O)c1ccccc1O
- IC50 [1]: 70.4 µM (active)
- EC50 [2]: 11 µM (active)
- IC50 [3]: 2.57 µM (active)
- EC50 [4]: 8.8 µM (active)
- EC50 [5]: 9.65 µM (active)

Compound: CCCCC(=O)NC(c1ccccc1)c1ccc2cccnc2c1O (stereo unspecified)
- AC50 [6]: 1.31 µM (active)
- IC50 [7]: 10.6 µM (active)
- AC50 [8]: 63.3 µM (active)
- AC50 [9]: 10.9 µM (active)
- AC50 [10]: 2.35 µM (active)
- AC50 [11]: 2.13 µM (active)
- EC50 [12]: 24.2 µM (active)
- AC50 [13]: 25.5 µM (active)
- EC50 [14]: 0.502 µM (active)
- AC50 [15]: 9.11 µM (active)
- IC50 [16]: 5.62 µM (active)
- EC50 [17]: > 180 µM (inactive)
- AC50 [18]: 3.28 µM (active)
- AC50 [19]: 3.88 µM (active)
- EC50 [20]: > 350 µM (not active)
- AC50 [21]: 2.37 µM (active)

Compound: O=C(N/N=C1\C/C(=N\NC(=O)c2ccncc2)c2ccccc21)c1ccncc1
- IC50 [22]: 1.35 µM (active)
- AC50 [23]: 0.749 µM (active)
- IC50 [24]: 5.02 µM (active)

Compound: CC(=O)N(Cc1ccc(F)cc1)C1=C(NCCc2ccccc2)C(=O)c2ccccc2C1=O
- CC50 [25]: 5.95 µM (active)
- AC50 [26]: 2.16 µM (active)
- AC50 [27]: 5.21 µM (active)
- AC50 [28]: 5.61 µM (active)
- AC50 [29]: 2.45 µM (active)
- AC50 [30]: 8.23 µM (active)
- CC50 [31]: 10.9 µM (active)
